# Test results published in patent publication US9540363B2, “Solid oral formulations and crystalline forms of an inhibitor of apoptosis protein” (Novartis AG, priority 2009, dated 2017).
# What was measured:
# [1] = Water sorption and desorption (hygroscopicity) of crystalline forms; format: physicochemical; conditions: for maximum water uptake: at 25° C. up to 95% RH; for hygroscopicity: crystalline solid form
# Text: The crystalline forms of compound of Formula (I), its salts and solvates can be characterized by a number of methods, including but not limited to, Powder X-Ray diffraction (PXRD), simulated powder X-ray patterns (Yin. S.; Scaringe, R. P.; DiMarco, J.; Galella, M. and Gougoutas, J. Z., American Pharmaceutical Review, 2003, 6, 2, 80), Differential scanning calorimetry (DSC) experiments, Solid-state C-13 NMR measurements, (W. L. Earl and D. L. VanderHart, J. Magn. Reson., 1982, 48, 35-54), Raman spectroscopy, Infra-red spectroscopy, Moisture sorption isotherms (VTI—variable temperature isotherms), and hot stage techniques.
# (§1) The crystalline forms HA, A, B, C, and D obtained in Examples 11-16 are analyzed by various standard methods: XPRD, DSC, TGA, Microscopy. Water sorption and desorption is also examined.
# [2] = Heating of the hemihydrate form (dehydration and form conversion); format: physicochemical; conditions: upon heating
# Procedure: Form B can be obtained by heating the hemihydrate Form HA above 100° C. over a period of time to remove the water completely, by equilibrating the hemihydrate Form HA in heptane at 50° C., or by cooling crystallization from methyl isobutyl ketone.
# as §1
maximum water uptake [1],hygroscopicity [1],water content ([1]; between 10% relative humidity (RH) and 70% RH),additional moisture taken up ([1]; from 70% RH to 95% RH),heating temperature at which the form loses water and converts to Form B [2],SMILES
less than 0.5%,slightly hygroscopic,,,,"CN[C@@H](C)C(=O)N[C@H](C(=O)N1CCC[C@H]1c1nc(C(=O)c2ccc(F)cc2)cs1)C1CCCCC1 [Form D, (S)—N—((S)-1-cyclohexyl-2-{(S)-2-[4-(4-fluoro-benzoyl)-thiazol-2-yl]-pyrrolidin-1-yl}-2-oxo-ethyl)-2-methylamino-propionamide]"
less than 0.2%,nonhygroscopic,,,,"CN[C@@H](C)C(=O)N[C@H](C(=O)N1CCC[C@H]1c1nc(C(=O)c2ccc(F)cc2)cs1)C1CCCCC1 [Form C, (S)—N—((S)-1-cyclohexyl-2-{(S)-2-[4-(4-fluoro-benzoyl)-thiazol-2-yl]-pyrrolidin-1-yl}-2-oxo-ethyl)-2-methylamino-propionamide]"
about 0.8%,slightly hygroscopic,,,,"CN[C@@H](C)C(=O)N[C@H](C(=O)N1CCC[C@H]1c1nc(C(=O)c2ccc(F)cc2)cs1)C1CCCCC1 [Form A, (S)—N—((S)-1-cyclohexyl-2-{(S)-2-[4-(4-fluoro-benzoyl)-thiazol-2-yl]-pyrrolidin-1-yl}-2-oxo-ethyl)-2-methylamino-propionamide]"
,slightly hygroscopic,~1.7%,~0.4%,above 100 °C,"CN[C@@H](C)C(=O)N[C@H](C(=O)N1CCC[C@H]1c1nc(C(=O)c2ccc(F)cc2)cs1)C1CCCCC1 [Form HA, (S)—N—((S)-1-cyclohexyl-2-{(S)-2-[4-(4-fluoro-benzoyl)-thiazol-2-yl]-pyrrolidin-1-yl}-2-oxo-ethyl)-2-methylamino-propionamide]"
about 0.5%,slightly hygroscopic,,,,"CN[C@@H](C)C(=O)N[C@H](C(=O)N1CCC[C@H]1c1nc(C(=O)c2ccc(F)cc2)cs1)C1CCCCC1 [Form B, (S)—N—((S)-1-cyclohexyl-2-{(S)-2-[4-(4-fluoro-benzoyl)-thiazol-2-yl]-pyrrolidin-1-yl}-2-oxo-ethyl)-2-methylamino-propionamide]"
